These results are taken from patent US6569446B1, “Solubilization of flavonols” (The Howard Foundation, priority 1996, dated 2003).

One may read the solubility as the dissolved amount per volume that the medium holds. Read a low solubility as little dissolved substance.

Molecules are shown by their SMILES. Converted amounts (≈) assume the structure as drawn.

The nature of data set [1]: Solubilization of quercetin, quercitrin and rutin by heat in water, grape anthocyanin and malvin chloride solutions (Example 6). It counts as physicochemical. The following applies: thermodynamic from solid. The method, then: Quercetin is a flavonol aglycone. In fruit juices it exists as the glycoside. The purpose of the investigation was to examine the solubilization of glycosides of flavonols by anthocyanins. […] Samples were diluted in water 1:9 before reading. Aliquots of anthocyanin and water with and without the flavonol were treated similarly.
The same procedure was used for measuring the solubility of the flavonols in malvin chloride. In this case 1.8 mg malvin chloride was dissolved in 2.0 ml citrate buffer at pH3. To 1 ml was added 2 mg of the flavonol, the other 1 ml acted as a control. After heating, the mixture was cooled to room temperature, centrifuged, and the supernatant diluted 1:9 with 50% aqueous ethanol. The optical densities were measured at 375 nm.

A further data set is described as follows: physchem. The following applies: 20 °C, aqueous with cosolvent or surfactant or cyclodextrin, kinetic from dmso stock. Type of data set: physicochemical. The method, then: The procedure used was as follows: anthocyanin powder was dissolved in deionised water to give concentrations of 0.625, 1.25, 2.5, 10 and 20 mg/ml. […] The mixtures were allowed to stand for 20 to 30 min and then centrifuged at 2000×g for 30 min at 20° C. The optical densities were measured at 258 nm and 375 nm as in Example 1. To 5 ml of each corresponding anthocyanin solution was added the same volume of ethanol determined above to give a precipitate, and the optical densities measured. […] The control was water.
Since quercitin is more soluble in aqueous ethanol than water a further series of controls were prepared in which quercetin in ethanol was added to water in amounts corresponding to those used in the test, and the solubilities likewise determined. […] To solubilize quercetin more anthocyanin was needed than quercetin w/w.

A short description of data set [2]: Solubility of solid quercetin mixed with liquids at room temperature (Example 3). It counts as physicochemical. Conditions: 20 °C, thermodynamic from solid, Room temp.
A short description of data set [3]: Solubility of solid quercetin in liquids after heating to boiling in microwave oven (Example 3). Type of data set: physicochemical. Conditions: 20 °C, thermodynamic from solid. As for the experimental part:
To investigate dissolution by heat, the liquids were heated in a sealed tube for 1 min in a microwave oven (when boiling of the liquid occurred) and cooled to room temperature.

A short description of data set [4]: Solubilization of quercetin in aqueous malvin chloride by addition of ethanol solution of quercetin (Example 5). Type of data set: physicochemical. As for the experimental part: The anthocyanins can be divided into two major classes: the monomeric anthocyanins and the polymeric anthocyanins. A typical example of a monomeric anthocyanin is malvin chloride, a salt of the oxonium ion malvidin-3-glucose and the chloride ion. It can be obtained in a high state of purity (Indofine Inc, USA) and therefore used to determine the solubilizing effect of an anthocyanin monomer. The procedure was as follows: malvin chloride (2.2 mg) was dissolved in 2 ml citrate buffer (pH 3.0)—one ml acted as a control. […] Equal amounts of ethanol were added to the control. Each solution was diluted (1:9) with 5% aqueous ethanol and the optical density determined at 275 nm.

For data set [5] the following is noted: ileostomy subjects (Hollman et al 1995); cited from earlier work.
[6] abbreviates: aqueous with cosolvent or surfactant or cyclodextrin.
Setting [7] is: pH 3, aqueous with cosolvent or surfactant or cyclodextrin.

`C[C@@H]1O[C@@H](Oc2c(-c3ccc(O)c(O)c3)oc3cc(O)cc(O)c3c2=O)[C@H](O)[C@H](O)[C@H]1O` [Quercitrin, quercetin 3-L-rhamnoside]: the solubility at 1 min in data set [1] (setting [6]) turned out to be 316 µg/mL (≈ 705 µM); in data set [1] (setting [7]), 127 µg/mL (≈ 283 µM); in data set [1] (water) it was 53 µg/mL (≈ 118 µM).
For the compound `C[C@@H]1O[C@@H](OC[C@H]2O[C@@H](Oc3c(-c4ccc(O)c(O)c4)oc4cc(O)cc(O)c4c3=O)[C@H](O)[C@@H](O)[C@@H]2O)[C@H](O)[C@H](O)[C@H]1O` [Rutin, quercetin 3β-D-rutinoside hydrate], the solubility at 1 min worked out at 260 µg/mL in data set [1] (setting [6]), 74 µg/mL in data set [1] (setting [7]) and 36 µg/mL in data set [1] (water).
For the compound `O=c1c(O)c(-c2ccc(O)c(O)c2)oc2cc(O)cc(O)c12` [quercetin], the solubility amounted to 13 µg/mL (≈ 43 µM) in “physchem”; 75 µg/mL (≈ 248 µM) in the data set “physchem” (Solubility of quercetin, 20 mg grape anthocyanin powder/ml, in a 22% ethanol solution); 13 µg/mL (≈ 43 µM) in data set [4] (20% v/v ethanol, aqueous with cosolvent or surfactant or cyclodextrin, ethanol 20% v/v, without malvin chloride). Also, the solubility at 3 h in data set [2] (aqueous with cosolvent or surfactant or cyclodextrin, Ethanol 12% v/v) was 1 µg/mL (≈ 3.31 µM); in data set [2] (aqueous with cosolvent or surfactant or cyclodextrin, Red wine Cabernet-Sauvignon (F)) it was 3 µg/mL (≈ 9.93 µM); in data set [2] (aqueous with cosolvent or surfactant or cyclodextrin, grape Anthocyanin powder 1 g/L in water), 0.7 µg/mL (≈ 2.32 µM); in data set [2] (Water, OD 375 nm), 0.3 µg/mL (≈ 0.993 µM). For the same compound, the solubility at 1 min in data set [3] (aqueous with cosolvent or surfactant or cyclodextrin, Boiling, Rosé D'Anjou (F)) turned out to be 9 µg/mL (≈ 29.8 µM); in data set [3] (water, Solubility of quercetin), 2 µg/mL (≈ 6.62 µM); in data set [1] (setting [6]) it was 90 µg/mL (≈ 298 µM); in data set [1] (setting [7]), 28 µg/mL (≈ 92.6 µM); in data set [1] (water), 2 µg/mL (≈ 6.62 µM). Moreover, the “Solubility of quercetin in presence of malvin chloride” value in data set [4] (citrate buffer pH 3.0, 20% v/v ethanol, possibly super saturated) is on record as “extremely soluble”. Also, the “quercetin added to 1 ml malvin chloride with no precipitate” value in data set [4] (malvin chloride 1.1 mg/ml in citrate buffer pH 3.0, quercetin added in ethanol, slight precipitate at 1000 μg) was found to be 750 µg. Further, in data set [5], the absorption is given as 25%.
